In the supplement of paper PMC10307832:

Legend:
Test in all cases: relative viability (nuclei count vs DMSO), 5 days (fraction); higher = more cells survive
NCI-H1793 = test system: NCI-H1793
Outline: (§1)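 After 5 days of treatment, lung cancer cells in 1536-well plates were fixed and stained in a single step (final 0.05% Triton X-100, 1% formaldehyde, 1 ug/ml Hoechst) and their nuclei counted on 4× images. Treatment had been applied by pin tool the day after seeding as one drug alone or as a fixed anchor-drug dose with five library-drug doses (not always all listed) in √10 steps. Relative viability is the nuclei count of treated wells divided by that of vehicle wells, and values are medians of duplicate plates.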

SW 900 = test system: SW 900
Outline: as §1

LOU-NH91 = test system: LOU-NH91
Outline: as §1

201T = test system: 201T
Outline: as §1

NCI-H1563 = test system: NCI-H1563
Outline: as §1

HCC-15 = test system: HCC-15
Outline: as §1

NCI-H3122 = test system: NCI-H3122
Outline: as §1

H3255 = test system: H3255
Outline: as §1

NCI-H1734 = test system: NCI-H1734
Outline: as §1

NCI-H2347 = test system: NCI-H2347
Outline: as §1

COR-L23 = test system: COR-L23
Outline: as §1

NCI-H647 = test system: NCI-H647
Outline: as §1

NCI-H2405 = test system: NCI-H2405
Outline: as §1

EPLC-272H = test system: EPLC-272H
Outline: as §1

NCI-H520 = test system: NCI-H520
Outline: as §1

UMC-11 = test system: UMC-11
Outline: as §1

NCI-H322M = test system: NCI-H322M
Outline: as §1

NCI-H1650 = test system: NCI-H1650
Outline: as §1

NCI-H441 = test system: NCI-H441
Outline: as §1

NCI-H2170 = test system: NCI-H2170
Outline: as §1

PC-14 = test system: PC-14
Outline: as §1

NCI-H2023 = test system: NCI-H2023
Outline: as §1

With `Nc1ccn([C@@H]2O[C@H](CO)[C@@H](O)[C@@H]2O)c(=O)n1` [Cytarabine] + COc1cc2c(Oc3ccc(NC(=O)C4(C(=O)Nc5ccc(F)cc5)CC4)cc3F)ccnc2cc1OCCCN1CCOCC1 [Foretinib] (partner 0.25 µM) the relative viability (NCI-H1793; first compound 0.005 µM) was 0.812, the relative viability (NCI-H1793; first compound 0.01581 µM) was 0.684 and the relative viability (NCI-H1793; first compound 0.05 µM) was 0.683. For the same compound, the relative viability (NCI-H1793; first compound 0.1581 µM) was 0.545, the relative viability (NCI-H1793; first compound 0.5 µM) was 0.494 and the relative viability (SW 900; first compound 0.005 µM) was 0.688. For the same compound, the relative viability (SW 900; first compound 0.01581 µM) was 0.569, the relative viability (SW 900; first compound 0.05 µM) was 0.329 and the relative viability (SW 900; first compound 0.1581 µM) was 0.21. For the same compound, the relative viability (SW 900; first compound 0.5 µM) was 0.114, the relative viability (LOU-NH91; first compound 0.005 µM) was 0.993 and the relative viability (LOU-NH91; first compound 0.01581 µM) was 0.926. The relative viability (LOU-NH91; first compound 0.05 µM) was 0.869, the relative viability (LOU-NH91; first compound 0.1581 µM) was 0.585 and the relative viability (LOU-NH91; first compound 0.5 µM) was 0.712. It also gave a relative viability (201T; first compound 0.005 µM) of 1.1, a relative viability (201T; first compound 0.01581 µM) of 1.12 and a relative viability (201T; first compound 0.05 µM) of 1.02. It also gave a relative viability (201T; first compound 0.1581 µM) of 0.762, a relative viability (201T; first compound 0.5 µM) of 0.323 and a relative viability (NCI-H1563; first compound 0.005 µM) of 0.869. It also gave a relative viability (NCI-H1563; first compound 0.01581 µM) of 0.875, a relative viability (NCI-H1563; first compound 0.05 µM) of 0.869 and a relative viability (NCI-H1563; first compound 0.1581 µM) of 0.846. It also gave a relative viability (NCI-H1563; first compound 0.5 µM) of 0.73, a relative viability (HCC-15; first compound 0.005 µM) of 0.905 and a relative viability (HCC-15; first compound 0.01581 µM) of 1.05. For the same compound, the relative viability (HCC-15; first compound 0.05 µM) was 0.996, the relative viability (HCC-15; first compound 0.1581 µM) was 0.77 and the relative viability (HCC-15; first compound 0.5 µM) was 0.706. It also gave a relative viability (NCI-H3122; first compound 0.005 µM) of 0.887, a relative viability (NCI-H3122; first compound 0.01581 µM) of 0.805 and a relative viability (NCI-H3122; first compound 0.05 µM) of 0.777. It also gave a relative viability (NCI-H3122; first compound 0.1581 µM) of 0.509, a relative viability (NCI-H3122; first compound 0.5 µM) of 0.344 and a relative viability (H3255; first compound 0.005 µM) of 0.889. For the same compound, the relative viability (H3255; first compound 0.01581 µM) was 0.905, the relative viability (H3255; first compound 0.05 µM) was 0.628 and the relative viability (H3255; first compound 0.1581 µM) was 0.665. For the same compound, the relative viability (H3255; first compound 0.5 µM) was 0.531, the relative viability (NCI-H1734; first compound 0.005 µM) was 0.553 and the relative viability (NCI-H1734; first compound 0.01581 µM) was 0.373. For the same compound, the relative viability (NCI-H1734; first compound 0.05 µM) was 0.205, the relative viability (NCI-H1734; first compound 0.1581 µM) was 0.164 and the relative viability (NCI-H1734; first compound 0.5 µM) was 0.124. The relative viability (NCI-H2347; first compound 0.005 µM) was 1.32, the relative viability (NCI-H2347; first compound 0.01581 µM) was 1.43 and the relative viability (NCI-H2347; first compound 0.05 µM) was 0.806. For the same compound, the relative viability (NCI-H2347; first compound 0.1581 µM) was 0.463, the relative viability (NCI-H2347; first compound 0.5 µM) was 0.343 and the relative viability (COR-L23; first compound 0.005 µM) was 0.958. The relative viability (COR-L23; first compound 0.01581 µM) was 0.966, the relative viability (COR-L23; first compound 0.05 µM) was 0.612 and the relative viability (COR-L23; first compound 0.1581 µM) was 0.206. The relative viability (COR-L23; first compound 0.5 µM) was 0.137, the relative viability (NCI-H647; first compound 0.005 µM) was 0.625 and the relative viability (NCI-H647; first compound 0.01581 µM) was 0.617. It also gave a relative viability (NCI-H647; first compound 0.05 µM) of 0.282, a relative viability (NCI-H647; first compound 0.1581 µM) of 0.109 and a relative viability (NCI-H647; first compound 0.5 µM) of 0.11. It also gave a relative viability (NCI-H2405; first compound 0.005 µM) of 1.02, a relative viability (NCI-H2405; first compound 0.01581 µM) of 0.908 and a relative viability (NCI-H2405; first compound 0.05 µM) of 0.747. The relative viability (NCI-H2405; first compound 0.1581 µM) was 0.618, the relative viability (NCI-H2405; first compound 0.5 µM) was 0.493 and the relative viability (EPLC-272H; first compound 0.005 µM) was 0.639. It also gave a relative viability (EPLC-272H; first compound 0.01581 µM) of 0.477, a relative viability (EPLC-272H; first compound 0.05 µM) of 0.461 and a relative viability (EPLC-272H; first compound 0.1581 µM) of 0.196. For the same compound, the relative viability (EPLC-272H; first compound 0.5 µM) was 0.234, the relative viability (NCI-H520; first compound 0.005 µM) was 0.739 and the relative viability (NCI-H520; first compound 0.01581 µM) was 0.795. For the same compound, the relative viability (NCI-H520; first compound 0.05 µM) was 0.974, the relative viability (NCI-H520; first compound 0.1581 µM) was 0.621 and the relative viability (NCI-H520; first compound 0.5 µM) was 0.589. The relative viability (UMC-11; first compound 0.005 µM) was 0.653, the relative viability (UMC-11; first compound 0.01581 µM) was 0.63 and the relative viability (UMC-11; first compound 0.05 µM) was 0.45. It also gave a relative viability (UMC-11; first compound 0.1581 µM) of 0.349, a relative viability (UMC-11; first compound 0.5 µM) of 0.261 and a relative viability (NCI-H322M; first compound 0.005 µM) of 0.827. It also gave a relative viability (NCI-H322M; first compound 0.01581 µM) of 0.761, a relative viability (NCI-H322M; first compound 0.05 µM) of 0.677 and a relative viability (NCI-H322M; first compound 0.1581 µM) of 0.464. For the same compound, the relative viability (NCI-H322M; first compound 0.5 µM) was 0.336, the relative viability (NCI-H1650; first compound 0.005 µM) was 0.783 and the relative viability (NCI-H1650; first compound 0.01581 µM) was 0.973. It also gave a relative viability (NCI-H1650; first compound 0.05 µM) of 0.73, a relative viability (NCI-H1650; first compound 0.1581 µM) of 0.347 and a relative viability (NCI-H1650; first compound 0.5 µM) of 0.211. The relative viability (NCI-H441; first compound 0.005 µM) was 0.841, the relative viability (NCI-H441; first compound 0.01581 µM) was 0.856 and the relative viability (NCI-H441; first compound 0.05 µM) was 1.05. For the same compound, the relative viability (NCI-H441; first compound 0.1581 µM) was 0.661, the relative viability (NCI-H441; first compound 0.5 µM) was 0.4 and the relative viability (NCI-H2170; first compound 0.005 µM) was 0.736. The relative viability (NCI-H2170; first compound 0.01581 µM) was 0.458, the relative viability (NCI-H2170; first compound 0.05 µM) was 0.672 and the relative viability (NCI-H2170; first compound 0.1581 µM) was 0.515. The relative viability (NCI-H2170; first compound 0.5 µM) was 0.569, the relative viability (PC-14; first compound 0.005 µM) was 0.808 and the relative viability (PC-14; first compound 0.01581 µM) was 0.914. The relative viability (PC-14; first compound 0.05 µM) was 1.02, the relative viability (PC-14; first compound 0.1581 µM) was 0.536 and the relative viability (PC-14; first compound 0.5 µM) was 0.349. It also gave a relative viability (NCI-H2023; first compound 0.005 µM) of 0.535, a relative viability (NCI-H2023; first compound 0.01581 µM) of 0.502 and a relative viability (NCI-H2023; first compound 0.05 µM) of 0.158. For the same compound, the relative viability (NCI-H2023; first compound 0.1581 µM) was 0.101 and the relative viability (NCI-H2023; first compound 0.5 µM) was 0.0682.
